In patent US8937089B2, “Synergistic mixtures of anthranilamide invertebrate pest control agents” (priority 2004, dated 2015):

How the values were obtained:
Experiment in all cases: whole plant or invertebrate
Type in all cases: in vivo
[1] = system: green peach aphid (Myzus persicae Sulzer); settings: Green Peach Aphid
Experimental: (§1) Test compounds were formulated using a solution containing 10% acetone, 90% water and 300 ppm X-77® Spreader Lo-Foam Formula non-ionic surfactant containing alkylarylpolyoxyethylene, free fatty acids, glycols and 2-propanol (Loveland Industries, Inc.) to provide the desired concentration in ppm. Formulated test solutions were then applied in 1 mL volumes through a SUJ2 atomizer nozzle with 1/8 JJ custom body (Spraying Systems Co.) positioned 1.27 cm (0.5 inches) above the top of each test unit.
(§2) For evaluating control of green peach aphid (Myzus persicae Sulzer) through contact and/or systemic means, each test unit consisted of a small open container with a 12- to 15-day-old radish plant inside. This was pre-infested by placing on a leaf of the test plant 30 to 40 aphids on a piece of leaf excised from a culture plant (cut-leaf method). The larvae moved onto the test plant as the leaf piece desiccated. After pre-infestation, the soil of the test unit was covered with a layer of sand.
(§3) Test compounds were formulated and sprayed as described in Test A, replicated three times. After spraying of the formulated test compound, each test unit was allowed to dry for 1 hour and then a black, screened cap was placed on top. The test units were held for 6 days in a growth chamber at 19-21° C. and 50-70% relative humidity.

[2] = system: silverleaf whitefly (Bemisia argentifolii Bellows and Perring); settings: Table 2B
Text: For evaluating control of silverleaf whitefly (Bemisia argentifolii Bellows and Perring) through contact and/or systemic means, each test unit consisted of a small open container with a 12- to 14-day-old cotton plant inside. This was pre-infested by placing test units into cages infested with adult whiteflies so that oviposition on the cotton leaves could occur. The adults were removed from the plants with an air-blast nozzle, and the test units were capped. The test units were then stored 2 to 3 days before spraying.
as §1
The results for all experimental compositions in this test were replicated three times. After spraying of the formulated test composition, each test unit was allowed to dry for 1 hour and the cap removed. The test units were held for 13 days in a growth chamber at 28° C. and 50-70% relative humidity.

[3] = system: corn planthopper (Peregrines maidis)
Experimental: as §1
For evaluating control of corn planthopper (Peregrines maidis) through contact and/or systemic means, each test unit consisted of a small open cylindrical container with a 3- to 4-day-old corn (maize) plant (spike) inside. White sand was added to the top of the soil prior to application. Test compounds were formulated and sprayed with 3 replications as described for Test A. After spraying, the test units were allowed to dry for 1 hour before they were post-infested with 10 to 20 corn planthoppers (18- to 20-day-old nymphs) by sprinkling them onto the sand with a salt shaker. A black, screened cap was placed on the top of each container. The test units were held for 6 days in a growth chamber at 19-21° C. and 50-70% relative humidity.

[4] = system: cotton melon aphid (Aphis gossypii Glover)
Experimental: as §1
as §2, with “cotton melon” for “green peach”, “(Aphis gossypii Glover)” for “(Myzus persicae Sulzer)”, “6-” for “12-”, “7-day-old cotton” for “15-day-old radish”
as §3, with “described for” for “described in”, “Test A. The applications were” for “Test A,”, “test compounds,” for “test compound,”

[5] = system: western flower thrip (Frankliniella occidentalis Pergande)
Experimental: as §1
For evaluating control of the western flower thrip (Frankliniella occidentalis Pergande) through contact and/or systemic means, each test unit consisted of a small open container with a 5- to 7-day-old bean (var. Soleil) plant inside.
Test solutions were formulated and sprayed with 3 replications as described for Test A. After spraying, the test units were allowed to dry for 1 hour, 22 to 27 adult thrips were added to each unit and then a black, screened cap was placed on top. The test units were held for 7 days at 25° C. and 45-55% relative humidity.

[6] = system: potato leafhopper (Empoasca fabae Harris)
Experimental: as §1
[…] White sand was added to the top of the soil, and one of the primary leaves was excised prior to application. Test compounds were formulated and sprayed with 3 replications as described for Test A. After spraying, the test units were allowed to dry for 1 hour before they were infested with 5 potato leafhoppers (18- to 21-day-old adults). A black, screened cap was placed on the top of each container. The test units were held for 6 days in a growth chamber at 19-21° C. and 50-70% relative humidity.

[7] = Myzus persicae, in Raphanus sativus, rate 100 ppm, read-out: % mortality (obs)
[8] = Myzus persicae, in Raphanus sativus, rate 1000 ppm, read-out: % mortality (obs)
[9] = Bemisia argentifolii, in Gossypium hirsutum, rate 10 ppm, read-out: % mortality (obs)
[10] = Corn Plant Hopper, rate 100 ppm, read-out: % mortality (obs)
[11] = Corn Plant Hopper, rate 1000 ppm, read-out: % mortality (obs)
[12] = Aphis gossypii, rate 1000 ppm, read-out: % mortality (obs)
[13] = Frankliniella occidentalis, 168 h, rate 10 ppm, single compound, spray, 7 days, read-out: % mortality (obs)
[14] = Frankliniella occidentalis, 168 h, rate 100 ppm, single compound, spray, 7 days, read-out: % mortality (obs)
[15] = Empoasca fabae, rate 100 ppm, alone, read-out: % mortality (obs)
[16] = Empoasca fabae, rate 1000 ppm, alone, read-out: % mortality (obs)
[17] = Corn Plant Hopper, rate 100 ppm
[18] = Corn Plant Hopper, rate 1000 ppm
[19] = rate 10 ppm, single compound, spray, 7 days
[20] = rate 100 ppm, single compound, spray, 7 days
[21] = rate 1000 ppm, single compound, spray, 7 days

Compound: CCOC(=O)NCCOc1ccc(Oc2ccccc2)cc1 [Fenoxycarb]
- mortality at 10 ppm ([1]; Myzus persicae, in Raphanus sativus, rate 10 ppm, read-out: % mortality (obs)): 17%
- mortality at 100 ppm [1, 7]: 16%
- mortality at 1000 ppm [1, 8]: 18%
- mortality at 2 ppm ([2]; Bemisia argentifolii, in Gossypium hirsutum, rate 2 ppm, read-out: % mortality (obs)): 0%
- mortality at 10 ppm [2, 9]: 0%
- mortality at 20 ppm ([2]; Bemisia argentifolii, in Gossypium hirsutum, rate 20 ppm, read-out: % mortality (obs)): 21%
- mortality at 10 ppm ([3]; Corn Plant Hopper, rate 10 ppm, read-out: % mortality (obs)): 8%
- mortality at 100 ppm [3, 10]: 2%
- mortality at 1000 ppm [3, 11]: 5%
- mortality at 10 ppm ([4]; Aphis gossypii, rate 10 ppm, read-out: % mortality (obs)): 16%
- mortality at 100 ppm ([4]; Aphis gossypii, rate 100 ppm, read-out: % mortality (obs)): 23%
- mortality at 1000 ppm [4, 12]: 34%
- mortality at 10 ppm [5, 13]: 40%
- mortality at 100 ppm [5, 14]: 70%
- mortality at 1000 ppm ([5]; Frankliniella occidentalis, 168 h, rate 1000 ppm, single compound, spray, 7 days, read-out: % mortality (obs)): 60%
- mortality at 10 ppm ([6]; Empoasca fabae, rate 10 ppm, alone, read-out: % mortality (obs)): 0%
- mortality at 100 ppm [6, 15]: 20%
- mortality at 1000 ppm [6, 16]: 0%

Compound: O=C(NC(=O)c1c(F)cccc1F)Nc1cc(Cl)c(OC(F)(F)C(F)F)c(Cl)c1 [Hexaflumuron]
- mortality at 100 ppm [1, 7]: 8%
- mortality at 1000 ppm [1, 8]: 6%
- mortality at 3000 ppm ([1]; Myzus persicae, in Raphanus sativus, rate 3000 ppm, read-out: % mortality (obs)): 13%
- mortality at 10 ppm [2, 9]: 1%
- mortality at 60 ppm ([2]; Bemisia argentifolii, in Gossypium hirsutum, rate 60 ppm, read-out: % mortality (obs)): 0%
- mortality at 360 ppm ([2]; Bemisia argentifolii, in Gossypium hirsutum, rate 360 ppm, read-out: % mortality (obs)): 0%
- mortality at 100 ppm [3, 10]: 6%
- mortality at 1000 ppm [3, 11]: 5%
- mortality at 3000 ppm ([3]; Corn Plant Hopper, rate 3000 ppm, read-out: % mortality (obs)): 4%
- mortality at 30 ppm ([4]; Aphis gossypii, rate 30 ppm, read-out: % mortality (obs)): 32%
- mortality at 1000 ppm [4, 12]: 30%
- mortality at 3000 ppm ([4]; Aphis gossypii, rate 3000 ppm, read-out: % mortality (obs)): 29%
- mortality at 100 ppm [6, 15]: 13%
- mortality at 1000 ppm [6, 16]: 13%
- mortality at 3000 ppm ([6]; Empoasca fabae, rate 3000 ppm, alone, read-out: % mortality (obs)): 27%

Compound: Chlorfenapyr
- % mortality (obs) ([1]; rate 1.5 ppm): 22%
- % mortality (obs) ([1]; rate 7 ppm): 36%
- % mortality (obs) ([1]; rate 35 ppm): 100%
- % mortality (obs) ([2]; rate 10 ppm): 6%
- % mortality (obs) ([2]; rate 100 ppm): 14%
- % mortality (obs) ([2]; rate 1000 ppm): 18%
- % mortality (obs) ([3]; Corn Plant Hopper, rate 1.5 ppm): 31%
- % mortality (obs) ([3]; Corn Plant Hopper, rate 2.5 ppm): 15%
- % mortality (obs) ([3]; Corn Plant Hopper, rate 3.5 ppm): 11%
- % mortality (obs) ([4]; rate 1 ppm): 27%
- % mortality (obs) ([4]; rate 10 ppm): 57%
- % mortality (obs) ([4]; rate 150 ppm): 67%
- % mortality (obs) ([5]; rate 5 ppm, single compound, spray, 7 days): 40%
- % mortality (obs) ([5]; rate 20 ppm, single compound, spray, 7 days): 70%
- % mortality (obs) ([5]; rate 150 ppm, single compound, spray, 7 days): 90%
- % mortality (obs) ([6]; rate 1 ppm, alone): 73%
- % mortality (obs) ([6]; rate 5 ppm, alone): 100%
- % mortality (obs) ([6]; rate 20 ppm, alone): 100%

Compound: Pyriproxyfen
- % mortality (obs) ([1]; rate 10 ppm): 23%
- % mortality (obs) ([1]; rate 100 ppm): 12%
- % mortality (obs) ([1]; rate 1000 ppm): 26%
- % mortality (obs) ([2]; rate 10 ppm): 100%
- % mortality (obs) ([2]; rate 15 ppm): 100%
- % mortality (obs) ([2]; rate 20 ppm): 100%
- % mortality (obs) ([3]; Corn Plant Hopper, rate 10 ppm): 0%
- % mortality (obs) [3, 17]: 8%
- % mortality (obs) [3, 18]: 12%
- % mortality (obs) ([4]; rate 10 ppm): 14%
- % mortality (obs) ([4]; rate 100 ppm): 28%
- % mortality (obs) ([4]; rate 1000 ppm): 33%
- % mortality (obs) [5, 19]: 100%
- % mortality (obs) [5, 20]: 100%
- % mortality (obs) [5, 21]: 100%
- % mortality (obs) ([6]; rate 10 ppm, alone): 13%
- % mortality (obs) ([6]; rate 100 ppm, alone): 0%
- % mortality (obs) ([6]; rate 1000 ppm, alone): 7%

Compound: Dinotefuran
- % mortality (obs) ([3]; in vivo): 5%
- % mortality (obs) ([5]; in vivo): 50%
- % mortality (obs) ([6]; in vivo): 7%

Compound: Abamectin
- % mortality (obs) ([1]; rate 0.08 ppm): 47%
- % mortality (obs) ([1]; rate 0.4 ppm): 100%
- % mortality (obs) ([1]; rate 2 ppm): 100%
- % mortality (obs) ([3]; Corn Plant Hopper, rate 1.6 ppm): 7%
- % mortality (obs) ([3]; Corn Plant Hopper, rate 8 ppm): 93%
- % mortality (obs) ([3]; Corn Plant Hopper, rate 40 ppm): 100%
- % mortality (obs) ([4]; rate 0.08 ppm): 35%
- % mortality (obs) ([4]; rate 0.4 ppm): 58%
- % mortality (obs) ([4]; rate 2 ppm): 100%
- % mortality (obs) ([5]; rate 1 ppm, single compound, spray, 7 days): 100%
- % mortality (obs) [5, 19]: 100%
- % mortality (obs) [5, 20]: 100%
- % mortality (obs) ([6]; rate 10 ppm, alone): 47%
- % mortality (obs) ([6]; rate 100 ppm, alone): 100%
- % mortality (obs) ([6]; rate 1000 ppm, alone): 100%

Compound: O=C(NC(=O)c1c(F)cccc1F)Nc1cc(Cl)c(OC(F)(F)C(F)C(F)(F)F)cc1Cl (stereo not drawn) [Lufenuron]
- mortality at 50 ppm ([1]; Myzus persicae, in Raphanus sativus, rate 50 ppm, read-out: % mortality (obs)): 34%
- mortality at 250 ppm ([1]; Myzus persicae, in Raphanus sativus, rate 250 ppm, read-out: % mortality (obs)): 15%
- mortality at 1000 ppm [1, 8]: 28%
- mortality at 0.08 ppm ([3]; Corn Plant Hopper, rate 0.08 ppm, read-out: % mortality (obs)): 9%
- mortality at 0.4 ppm ([3]; Corn Plant Hopper, rate 0.4 ppm, read-out: % mortality (obs)): 7%
- mortality at 2 ppm ([3]; Corn Plant Hopper, rate 2 ppm, read-out: % mortality (obs)): 7%
- mortality at 0.08 ppm ([4]; Aphis gossypii, rate 0.08 ppm, read-out: % mortality (obs)): 28%
- mortality at 0.4 ppm ([4]; Aphis gossypii, rate 0.4 ppm, read-out: % mortality (obs)): 39%
- mortality at 2 ppm ([4]; Aphis gossypii, rate 2 ppm, read-out: % mortality (obs)): 58%
- mortality at 10 ppm [5, 13]: 90%
- mortality at 100 ppm [5, 14]: 80%
- mortality at 500 ppm ([5]; Frankliniella occidentalis, 168 h, rate 500 ppm, single compound, spray, 7 days, read-out: % mortality (obs)): 80%
- mortality at 0.08 ppm ([6]; Empoasca fabae, rate 0.08 ppm, alone, read-out: % mortality (obs)): 40%
- mortality at 0.4 ppm ([6]; Empoasca fabae, rate 0.4 ppm, alone, read-out: % mortality (obs)): 53%
- mortality at 2 ppm ([6]; Empoasca fabae, rate 2 ppm, alone, read-out: % mortality (obs)): 40%

Compound: COC(C)(C)CCC[C@H](C)C/C=C/C(C)=C/C(=O)OC(C)C (racemic) [Methoprene]
- % mortality (obs) ([6]; in vivo): 0%

Compound: Lambda-cyhalothrin
- % mortality (obs) ([3]; in vivo): 7%
- % mortality (obs) ([5]; in vivo): 40%

Compound: Clothianidin
- % mortality (obs) ([1]; rate 0.08 ppm): 100%
- % mortality (obs) ([1]; rate 0.4 ppm): 100%
- % mortality (obs) ([1]; rate 2 ppm): 100%
- % mortality (obs) ([3]; Corn Plant Hopper, rate 10 ppm): 100%
- % mortality (obs) [3, 17]: 100%
- % mortality (obs) [3, 18]: 100%
- % mortality (obs) ([4]; rate 0.08 ppm): 75%
- % mortality (obs) ([4]; rate 0.4 ppm): 91%
- % mortality (obs) ([4]; rate 2 ppm): 99%
- % mortality (obs) [5, 20]: 90%
- % mortality (obs) ([5]; rate 500 ppm, single compound, spray, 7 days): 100%
- % mortality (obs) [5, 21]: 100%
- % mortality (obs) ([6]; rate 10 ppm, alone): 93%
- % mortality (obs) ([6]; rate 100 ppm, alone): 100%
- % mortality (obs) ([6]; rate 1000 ppm, alone): 100%
